Results as given in article PMC9957399, “New Insights into the Inhibition of Hesperetin on Polyphenol Oxidase: Inhibitory Kinetics, Binding Characteristics, Conformational Change and Computational Simulation” (Foods, 2023).
Marks after values point to notes of the source that are not given here.

Key:
[1] = target: PPO (monophenolase) (Agaricus bisporus, UniProt C7FF04); experiment: PPO activity assay, monophenolase (L-tyrosine oxidation); type: biochemical, mushroom
Procedure: To determine the monophenolase inhibitory activity of hesperetin, PPO (0.2 μΜ) was mixed with various concentrations of hesperetin (0, 25, 50, 100, 150, 200, 250 and 500 μM), and the mixtures were incubated at 30 °C. After 1 h, L-tyrosine (0.5 mΜ, substrate) was added to the mixtures, and the detection began.

[2] = test system: T1, PPO; experiment: Fluorometric titration (fluorescence quenching of PPO); type: binding, mushroom
T1 construct: purchased Worthington Biochemical Co. (Lakewood, CO, USA)
Procedure: Fluorescence spectra were measured at 298, 304 and 310 K by a fluorophotometer (F–7000, Hitachi, Tokyo, Japan). Briefly, the concentration of PPO was 2.0 μM, and the same volume of hesperetin was added into the PPO solution (2.0 mL) 10 times (0→25.0 μM). After each addition of hesperetin, 3 min was timed to equilibrate the mixed system. Then, the emission spectra (290–500 nm) were scanned at fixed excitation wavelength (280 nm).
To deduct the effect of internal filtration, all measured fluorescence data were processed through Formula (5):(5) FC=FMe^(A1+A2)/2 where FC and FM represent the corrected and detected fluorescence, respectively. A1 and A2 stand for the absorbance values of hesperetin at excitation and emission wavelengths, respectively.
The Stern–Volmer curves for PPO fluorescence quenched by hesperetin at each temperature were obtained through Equation (6):(6) F0/F=1+Kqτ0[Q]=1+Ksv[Q] where F and F0 denote the fluorescence intensity of PPO with and without hesperetin, respectively. Ksv, Kq and [Q] represent the fluorescence quenching constant, quenching rate constant and the concentration of hesperetin, respectively. τ0 represents the average fluorophore lifetime without hesperetin, and its value is usually equal to 10^−8 s.
Based on the following equation, the information about the interaction between hesperetin and PPO were obtained, including binding constant (Ka) and binding number (n):(7) logF0−F/F=nlogKa−nlog1/[Qt]−(F0−F)[Pt]/F0 where [Qt] and [Pt] stand for the concentrations of hesperetin and PPO. […] The n values at 298, 304 and 310 K were all equal to 1, implying that only one site existed when hesperetin interacted with PPO.
The values of ΔH°, ΔS° and ΔG°, which refer to enthalpy change, entropy change and free energy change, respectively, were obtained by the van ’t Hoff equations [42]:(8) logKa=−ΔH°/2.303RT+ΔS°/2.303R (9) ΔG°=ΔH°−TΔS° where T represents temperature; R represents gas constant, and its value is 8.314 J mol^−1 K^−1.

[3] = target: PPO (Agaricus bisporus, UniProt C7FF04); experiment: Kinetic analysis of inhibitory type (v vs [PPO], Lineweaver–Burk plots, L-dopa); type: biochemical, mushroom; settings: for inhibitory type: Lineweaver–Burk plots, hesperetin 0, 300, 600, 1200 μM
Sequence of PPO (Agaricus bisporus, UniProt C7FF04) (C7FF04 1-392): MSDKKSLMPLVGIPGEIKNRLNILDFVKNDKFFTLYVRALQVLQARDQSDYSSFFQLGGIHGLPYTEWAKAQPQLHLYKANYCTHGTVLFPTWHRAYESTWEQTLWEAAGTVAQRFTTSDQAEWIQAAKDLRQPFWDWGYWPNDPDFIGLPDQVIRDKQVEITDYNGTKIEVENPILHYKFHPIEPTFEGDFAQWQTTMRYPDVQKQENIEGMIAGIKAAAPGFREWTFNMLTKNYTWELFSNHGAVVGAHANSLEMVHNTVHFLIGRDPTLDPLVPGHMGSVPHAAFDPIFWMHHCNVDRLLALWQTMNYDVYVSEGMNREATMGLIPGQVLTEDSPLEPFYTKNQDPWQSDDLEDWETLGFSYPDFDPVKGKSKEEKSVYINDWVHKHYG
Sequence of PPO (Agaricus bisporus, UniProt C7FF04) (G1K3P4 entry or part of it, further chain): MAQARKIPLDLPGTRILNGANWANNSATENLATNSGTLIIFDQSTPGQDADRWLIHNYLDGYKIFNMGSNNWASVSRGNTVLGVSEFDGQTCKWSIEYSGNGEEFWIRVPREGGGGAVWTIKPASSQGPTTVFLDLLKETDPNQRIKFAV
Description: The inhibitory type of hesperetin against PPO could be evaluated using Lineweaver–Burk plots, and the mixed inhibition was described through Equation (1):(1) 1/v=Km/Vmax(1+[I]/Ki)1/[S]+1/Vmax(1+[I]/αKi) where v and Vmax represent enzyme reaction velocity and its maximum value, respectively. [I], [S] and Km are the concentrations of hesperetin and L-dopa, and the Michaelis–Menten constant, respectively. α denotes the apparent coefficient and Ki represents dissociation constant of hesperetin binding with free PPO, which can be calculated using the secondary Equations (2) and (3). (2) Slope=Km/Vmax+Km[I]/VmaxKi (3) Y-intercept=1/Vmaxapp=1/Vmax+1/αVmaxKi[I]
At different concentrations of hesperetin, the effect on the enzymatic reaction rate (ΔOD/min) by increasing the concentrations of PPO were shown in Figure 1E. […] As the concentration of hesperetin increased, the slopes of the lines declined.
Four lines intersected in the second quadrant. Either the slopes or the Y-intercept of four lines augmented with the rising concentrations of hesperetin, which represented the values of Km increased in a concentration-dependent manner while that of Vmax decreased. […] The inhibition mechanism of hesperetin against PPO deserved further exploration. […] Thus, hesperetin may have a better chance to bind with free PPO instead of PPO–hesperetin complex.

[4] = test system: PPO; parameters: method as in PMID 22093614; settings: cited from earlier work
[5] = target: monophenolase; parameters: method as in PMID 28873682; settings: previous study; read-out: IC50 on the inhibition of monophenolase activity; cited from earlier work

Sequence of PPO (monophenolase) (C7FF04 1-392): as the sequence (C7FF04 1-392) above
Sequence of PPO (monophenolase) (G1K3P4 1-150 partner): as the sequence (G1K3P4 entry or part of it, further chain) above

COc1ccc([C@@H]2CC(=O)c3c(O)cc(O)cc3O2)cc1O [hesperetin, Hesperetin]
lag time of L-tyrosine oxidation ([1]; hesperetin at 500.0 μM, extended from 1.08 min without inhibitor): 10.33 min
remaining activity at 100 µM ([1]; read-out: residual activity of PPO (monophenolase)): 41.2%
Kq (quenching rate constant) ([2]; 298, 304 and 310 K, τ0 = 10^−8 s, compared with maximum diffusion collision quenching constant): > 2e+10 M⁻¹ s⁻¹
Ka ([2]; 298 K): 19800 L/mol
Ka (binding constant) ([2]; 298 K): 1.98 ± 0.01 ^a ×10^4 L mol^−1
Ksv ([2]; 298 K): (1.71 ± 0.01) × 10^4 L mol^−1
Ksv (quenching constant) ([2]; 298 K): 1.71 ± 0.01 ^a ×10^4 L mol^−1
n (number of binding sites) ([2]; 298 K): 1.23 ± 0.03
Ka ([2]; 304 K): 20500 L/mol
Ka (binding constant) ([2]; 304 K): 2.05 ± 0.02 ^b ×10^4 L mol^−1
Ksv ([2]; 304 K): (1.76 ± 0.02) × 10^4 L mol^−1
Ksv (quenching constant) ([2]; 304 K): 1.76 ± 0.02 ^b ×10^4 L mol^−1
n (number of binding sites) ([2]; 304 K): 1.08 ± 0.01
Ka ([2]; 310 K): 22200 L/mol
Ka (binding constant) ([2]; 310 K): 2.22 ± 0.05 ^c ×10^4 L mol^−1
Ksv ([2]; 310 K): (2.09 ± 0.02) × 10^4 L mol^−1
Ksv (quenching constant) ([2]; 310 K): 2.09 ± 0.02 ^c ×10^4 L mol^−1
n (number of binding sites) ([2]; 310 K): 0.99 ± 0.04
n values ([2]; at 298, 304 and 310 K): 1
α (apparent coefficient) ([3]; L-dopa substrate, mixed inhibition model): 2.93
inhibitory type [3]: mixed-type inhibitor
inhibitory type ([3]; listed as Hesperetin): mixed inhibitor
reversibility of inhibition ([3]; plots of v versus [PPO], L-dopa 0.5 mM): reversibly inhibited
inhibitory type (previous study) [4]: competitive PPO inhibitor

O=c1c(O)c(-c2ccc(O)c(O)c2)oc2cc(O)cc(O)c12 [quercetin]
IC50 [5]: 19.4 ± 0.35 µM
